Patent US9834518B2, “Compounds for inhibiting cell proliferation in EGFR-driven cancers” (ARIAD Pharmaceuticals, Inc., priority 2011, dated 2017)

Key:
[1] = biological target: human EGFR (native sequence) (Homo sapiens, UniProt P00533); assay: Kinase inhibition, human EGFR (native sequence); assay type: biochemical; conditions: 10 μM ATP; 10 pt curves, 3 μM top concentration (singlicates)
Protocol: (§1) Kinase inhibitory activity of the compounds was measured against human EGFR (native sequence) and against EGFR bearing the L858R mution and the L858R/T790M double mutation (EGFR, L858R, and L858R/T790M, respectively in Table 1). Additional assays can be conducted with EGFR deletion mutants such as delE746-A750 with or without the additional T790M mutation. Assay conditions included 10 pt curves with 3 μM top concentration (singlicates) and 10 μM ATP.

[2] = biological target: EGFR bearing the L858R/T790M double mutation (Homo sapiens, UniProt P00533, L858R/T790M); assay: Kinase inhibition, EGFR L858R/T790M; assay type: biochemical; conditions: 10 μM ATP; 10 pt curves, 3 μM top concentration (singlicates)
Chain of EGFR bearing the L858R/T790M double mutation (P00533 25-1210 T790M/L858R): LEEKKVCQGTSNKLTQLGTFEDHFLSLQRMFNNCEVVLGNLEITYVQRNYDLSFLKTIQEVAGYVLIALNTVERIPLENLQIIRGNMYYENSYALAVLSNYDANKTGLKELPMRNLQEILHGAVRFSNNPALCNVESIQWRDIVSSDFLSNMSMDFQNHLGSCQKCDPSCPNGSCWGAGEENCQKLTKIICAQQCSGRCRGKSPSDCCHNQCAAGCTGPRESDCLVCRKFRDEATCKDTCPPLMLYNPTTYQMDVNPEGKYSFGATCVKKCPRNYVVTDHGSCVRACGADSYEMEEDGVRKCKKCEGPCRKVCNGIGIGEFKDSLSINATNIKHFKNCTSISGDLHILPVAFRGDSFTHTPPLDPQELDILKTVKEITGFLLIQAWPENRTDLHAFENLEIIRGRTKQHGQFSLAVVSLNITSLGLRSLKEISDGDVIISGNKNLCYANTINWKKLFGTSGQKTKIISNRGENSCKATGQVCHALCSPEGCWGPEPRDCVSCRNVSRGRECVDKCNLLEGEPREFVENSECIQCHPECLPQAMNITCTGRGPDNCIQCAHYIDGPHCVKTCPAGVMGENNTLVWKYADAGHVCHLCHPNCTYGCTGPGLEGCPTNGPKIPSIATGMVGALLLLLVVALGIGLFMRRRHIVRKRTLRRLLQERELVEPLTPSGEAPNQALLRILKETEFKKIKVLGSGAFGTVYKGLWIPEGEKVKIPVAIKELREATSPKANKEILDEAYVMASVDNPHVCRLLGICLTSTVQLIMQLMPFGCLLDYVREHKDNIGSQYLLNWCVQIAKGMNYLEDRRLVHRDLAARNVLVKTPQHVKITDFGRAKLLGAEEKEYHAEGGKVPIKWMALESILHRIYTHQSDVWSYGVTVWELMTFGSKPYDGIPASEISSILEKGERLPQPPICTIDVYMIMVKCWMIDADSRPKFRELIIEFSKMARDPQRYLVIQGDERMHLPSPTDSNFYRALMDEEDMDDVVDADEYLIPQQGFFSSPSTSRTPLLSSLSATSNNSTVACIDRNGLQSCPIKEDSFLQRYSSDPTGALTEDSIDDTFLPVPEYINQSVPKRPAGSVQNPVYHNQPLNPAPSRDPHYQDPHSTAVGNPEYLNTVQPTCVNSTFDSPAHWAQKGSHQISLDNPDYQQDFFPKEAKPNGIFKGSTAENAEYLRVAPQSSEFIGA
Protocol: as §1

[3] = biological target: EGFR bearing the L858R mution (Homo sapiens, UniProt P00533, L858R); assay: Kinase inhibition, EGFR L858R; assay type: biochemical; conditions: 10 μM ATP; 10 pt curves, 3 μM top concentration (singlicates)
Chain of EGFR bearing the L858R mution (P00533 25-1210 L858R): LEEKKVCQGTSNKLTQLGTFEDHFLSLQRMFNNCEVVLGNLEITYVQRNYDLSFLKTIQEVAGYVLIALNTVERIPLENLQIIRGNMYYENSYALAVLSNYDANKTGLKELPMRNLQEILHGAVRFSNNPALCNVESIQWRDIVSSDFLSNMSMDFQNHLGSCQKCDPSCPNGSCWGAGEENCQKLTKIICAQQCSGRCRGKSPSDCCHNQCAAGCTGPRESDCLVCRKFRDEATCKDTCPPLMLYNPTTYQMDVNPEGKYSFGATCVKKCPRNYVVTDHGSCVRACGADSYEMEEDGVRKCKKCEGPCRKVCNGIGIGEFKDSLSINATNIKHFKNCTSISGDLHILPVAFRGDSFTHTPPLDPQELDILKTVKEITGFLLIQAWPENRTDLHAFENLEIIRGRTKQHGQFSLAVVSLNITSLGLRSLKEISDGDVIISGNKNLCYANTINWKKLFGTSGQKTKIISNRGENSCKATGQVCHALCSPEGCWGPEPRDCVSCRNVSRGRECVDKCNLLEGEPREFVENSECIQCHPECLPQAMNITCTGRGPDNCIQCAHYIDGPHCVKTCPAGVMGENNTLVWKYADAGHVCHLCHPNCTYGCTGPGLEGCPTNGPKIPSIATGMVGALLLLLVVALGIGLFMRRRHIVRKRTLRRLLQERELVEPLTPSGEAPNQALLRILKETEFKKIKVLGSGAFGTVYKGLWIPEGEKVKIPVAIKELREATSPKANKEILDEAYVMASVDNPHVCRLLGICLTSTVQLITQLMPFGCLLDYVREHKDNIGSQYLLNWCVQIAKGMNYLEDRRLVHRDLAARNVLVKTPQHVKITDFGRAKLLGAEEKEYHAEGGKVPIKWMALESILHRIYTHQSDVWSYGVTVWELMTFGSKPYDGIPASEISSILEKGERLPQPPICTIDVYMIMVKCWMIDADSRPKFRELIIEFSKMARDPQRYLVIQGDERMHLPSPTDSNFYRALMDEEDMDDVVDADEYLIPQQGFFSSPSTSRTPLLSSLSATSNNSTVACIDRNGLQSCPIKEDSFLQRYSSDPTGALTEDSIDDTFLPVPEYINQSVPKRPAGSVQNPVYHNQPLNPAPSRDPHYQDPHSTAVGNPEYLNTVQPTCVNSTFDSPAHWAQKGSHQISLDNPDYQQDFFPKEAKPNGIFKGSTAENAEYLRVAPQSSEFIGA
Protocol: as §1

BAF3 PARENTAL = assay: Cell proliferation (MTT), BAF3 parental; assay type: cell-based; conditions: Mus musculus
Protocol: (§2) We also assessed the antiproliferative activity of compounds of Formula (I) against BaF3 cells expressing the target EGFR mutations or control (i.e., cell lines expressing wildtype EGFR). Assays were conducted using MTT.

[4] = test system: BAF3 EGFR L858R-T790M PURO POOL; assay: Cell proliferation (MTT), BAF3 EGFR L858R-T790M; assay type: cell-based; conditions: Ba/F3 EGFR
Protocol: as §2

[5] = biological target: BAF3 EGFR DEL T790M PURO POOL (Homo sapiens, UniProt P00533, DEL746-750/T790M, cells depend on it); assay: Cell proliferation (MTT), BAF3 EGFR DEL T790M; assay type: cell-based
Chain of BAF3 EGFR DEL T790M PURO POOL (P00533 with tags, fused parts or gaps DEL746-750/T790M): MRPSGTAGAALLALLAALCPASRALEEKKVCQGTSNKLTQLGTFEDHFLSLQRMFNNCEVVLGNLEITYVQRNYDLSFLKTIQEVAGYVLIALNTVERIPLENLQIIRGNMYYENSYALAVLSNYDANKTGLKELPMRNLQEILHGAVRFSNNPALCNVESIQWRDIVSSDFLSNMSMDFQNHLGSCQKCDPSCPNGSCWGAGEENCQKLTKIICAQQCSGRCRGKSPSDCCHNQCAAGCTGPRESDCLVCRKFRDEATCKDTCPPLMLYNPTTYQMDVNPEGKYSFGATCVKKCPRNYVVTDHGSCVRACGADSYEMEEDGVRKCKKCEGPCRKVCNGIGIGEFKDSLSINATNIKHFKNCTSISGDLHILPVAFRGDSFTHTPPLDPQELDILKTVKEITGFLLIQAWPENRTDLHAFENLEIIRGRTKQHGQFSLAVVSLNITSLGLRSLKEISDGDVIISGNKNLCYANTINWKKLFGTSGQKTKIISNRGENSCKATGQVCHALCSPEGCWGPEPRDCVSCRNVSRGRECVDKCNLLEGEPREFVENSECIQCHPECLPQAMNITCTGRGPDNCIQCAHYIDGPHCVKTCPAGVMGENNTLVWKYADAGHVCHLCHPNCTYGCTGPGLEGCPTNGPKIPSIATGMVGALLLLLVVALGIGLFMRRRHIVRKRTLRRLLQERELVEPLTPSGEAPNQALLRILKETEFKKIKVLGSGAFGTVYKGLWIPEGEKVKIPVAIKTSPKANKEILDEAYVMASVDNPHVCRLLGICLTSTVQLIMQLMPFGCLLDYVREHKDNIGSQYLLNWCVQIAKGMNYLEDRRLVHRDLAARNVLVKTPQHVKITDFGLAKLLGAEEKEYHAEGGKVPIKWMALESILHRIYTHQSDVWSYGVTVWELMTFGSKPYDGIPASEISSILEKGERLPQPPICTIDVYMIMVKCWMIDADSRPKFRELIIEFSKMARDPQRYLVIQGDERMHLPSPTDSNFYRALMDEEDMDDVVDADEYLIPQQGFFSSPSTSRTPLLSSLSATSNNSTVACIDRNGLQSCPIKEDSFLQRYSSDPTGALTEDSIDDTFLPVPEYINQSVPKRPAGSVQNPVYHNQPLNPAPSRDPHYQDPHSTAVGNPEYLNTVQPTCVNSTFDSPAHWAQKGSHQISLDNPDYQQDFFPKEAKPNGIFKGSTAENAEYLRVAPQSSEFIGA
Protocol: as §2

Chain of human EGFR (native sequence) (P00533 25-1210): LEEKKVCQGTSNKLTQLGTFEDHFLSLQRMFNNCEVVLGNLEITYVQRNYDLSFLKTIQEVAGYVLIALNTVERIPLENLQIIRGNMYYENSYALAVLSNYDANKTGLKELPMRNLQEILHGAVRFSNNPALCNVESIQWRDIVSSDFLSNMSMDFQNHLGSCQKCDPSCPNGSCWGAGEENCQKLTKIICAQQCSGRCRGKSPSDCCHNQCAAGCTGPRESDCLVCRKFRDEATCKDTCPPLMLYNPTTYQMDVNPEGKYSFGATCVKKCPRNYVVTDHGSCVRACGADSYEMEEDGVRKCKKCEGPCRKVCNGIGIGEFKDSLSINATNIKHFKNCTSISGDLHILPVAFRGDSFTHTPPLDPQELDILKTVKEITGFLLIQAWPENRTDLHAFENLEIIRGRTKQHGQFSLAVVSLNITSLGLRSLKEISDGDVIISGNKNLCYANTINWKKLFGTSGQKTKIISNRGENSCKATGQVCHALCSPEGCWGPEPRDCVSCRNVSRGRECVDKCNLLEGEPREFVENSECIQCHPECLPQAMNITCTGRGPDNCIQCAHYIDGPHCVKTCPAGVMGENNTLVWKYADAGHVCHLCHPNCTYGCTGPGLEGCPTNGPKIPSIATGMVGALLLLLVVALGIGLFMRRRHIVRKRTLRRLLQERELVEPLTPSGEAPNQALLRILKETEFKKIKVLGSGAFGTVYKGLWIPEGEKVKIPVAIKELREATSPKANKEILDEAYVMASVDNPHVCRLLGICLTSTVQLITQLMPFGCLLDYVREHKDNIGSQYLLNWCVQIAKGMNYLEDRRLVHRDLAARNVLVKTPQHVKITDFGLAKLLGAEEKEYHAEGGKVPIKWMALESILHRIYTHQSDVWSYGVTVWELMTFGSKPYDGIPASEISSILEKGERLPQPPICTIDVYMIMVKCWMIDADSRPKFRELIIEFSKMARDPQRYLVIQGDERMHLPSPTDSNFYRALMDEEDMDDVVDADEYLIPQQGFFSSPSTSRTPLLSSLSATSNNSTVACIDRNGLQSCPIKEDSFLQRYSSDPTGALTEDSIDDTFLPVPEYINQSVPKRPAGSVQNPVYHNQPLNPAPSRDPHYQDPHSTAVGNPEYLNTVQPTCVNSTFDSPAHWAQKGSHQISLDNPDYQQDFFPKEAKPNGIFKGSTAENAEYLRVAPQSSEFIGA

Row | SMILES | IC50 [1] [nM] | IC50 [2] [nM] | IC50 [3] [nM] | IC50 [4] [nM] | IC50 [5] [nM] | IC50 (BAF3 PARENTAL) [nM]
1 | COc1cc(N2CCOCC2)c(NC(=O)C2CO2)cc1Nc1ncc(Cl)c(Nc2ccccc2P(C)(C)=O)n1 (stereo not drawn) [Example 59, N-(5-((5-chloro-4-((2-(dimethylphosphoryl)phenyl)amino)pyrimidin-2-yl)amino)-4-methoxy-2-morpholinophenyl)oxirane-2-carboxamide] | < 51 | < 51 | < 51 | 101 to 250 | < 51 | ≥ 250
2 | C=CC(=O)Nc1ccc(OCC)c(Nc2ncc(Cl)c(Nc3ccccc3P(C)(C)=O)n2)c1 [Example 47, N-(3-((5-chloro-4-((2-(dimethylphosphoryl)phenyl)amino)pyrimidin-2-yl)amino)-4-ethoxyphenyl)acrylamide] | < 51 | < 51 | < 51 | < 51 | < 51 | ≥ 250
3 | C=CC(=O)Nc1ccc(OC)c(Nc2ncc(Br)c(Nc3ccccc3P(C)(C)=O)n2)c1 [Example 12, N-(3-((5-bromo-4-((2-(dimethylphosphoryl)phenyl)amino)pyrimidin-2-yl)amino)-4-methoxyphenyl)acrylamide] | < 51 | < 51 | < 51 | < 51 | < 51 | ≥ 250
4 | C=C(C)C(=O)Nc1ccc(OC)c(Nc2ncc(Cl)c(Nc3ccccc3P(C)(C)=O)n2)c1 [Example 5c, N-(3-((5-chloro-4-((2-(dimethylphosphoryl)phenyl)amino)pyrimidin-2-yl)amino)-4-methoxyphenyl)methacrylamide] | ≥ 250 | ≥ 250 | ≥ 250 | ≥ 250 | 101 to 250 | ≥ 250
5 | C=CC(=O)Nc1ccc(OC)c(Nc2ncc(Cl)c(Nc3ccccc3P(C)(C)=O)n2)c1 [Example 1, N-(3-((5-chloro-4-((2-(dimethylphosphoryl)phenyl)amino)pyrimidin-2-yl)amino)-4-methoxyphenyl)acrylamide] | 51 to 100 | < 51 | < 51 | < 51 | < 51 | ≥ 250

Second part, led by results:

Row | IC50 [1] [nM] | IC50 [2] [nM] | IC50 [3] [nM] | IC50 [4] [nM] | IC50 [5] [nM] | SMILES | IC50 (BAF3 PARENTAL) [nM]
6 | ≥ 250 | < 51 | < 51 | ≥ 250 | ≥ 250 | COCCOc1cc(OC)c(Nc2ncc(Cl)c(Nc3ccccc3P(C)(C)=O)n2)cc1NC(=O)/C=C/CN(C)C [Example 57, (E)-N-(5-((5-chloro-4-((2-(dimethylphosphoryl)phenyl)amino)pyrimidin-2-yl)amino)-4-methoxy-2-(2-methoxyethoxy)phenyl)-4-(dimethylamino)but-2-enamide] | ≥ 250
7 | < 51 | < 51 | < 51 | < 51 | < 51 | C=CC(=O)Nc1cc(Nc2ncc(Cl)c(Nc3ccccc3P(C)(C)=O)n2)c(OC)cc1N(C)CCN(C)CCOC [Example 38, N-(5-((5-chloro-4-((2-(dimethylphosphoryl)phenyl)amino)pyrimidin-2-yl)amino)-4-methoxy-2-((2-((2-methoxyethyl)(methyl)amino)ethyl)(methyl)amino)phenyl)acrylamide] | ≥ 250
8 | ≥ 250 | ≥ 250 | 101 to 250 | ≥ 250 | ≥ 250 | COc1ccc(N2C(=O)C=CC2=O)cc1Nc1ncc(Cl)c(Nc2ccccc2P(C)(C)=O)n1 [Example 46, 1-(3-((5-chloro-4-((2-(dimethylphosphoryl)phenyl)amino)pyrimidin-2-yl)amino)-4-methoxyphenyl)-1H-pyrrole-2,5-dione] | ≥ 250
9 | < 51 | < 51 | < 51 | < 51 | < 51 | C=C(CN(C(C)C)C(C)C)C(=O)Nc1ccc(OC)c(Nc2ncc(Cl)c(Nc3ccccc3P(C)(C)=O)n2)c1 [Example 35, N-(3-((5-chloro-4-((2-(dimethylphosphoryl)phenyl)amino)pyrimidin-2-yl)amino)-4-methoxyphenyl)-2-((diisopropylamino)methyl)acrylamide] | ≥ 250
10 | ≥ 250 | ≥ 250 | 51 to 100 | 51 to 100 | < 51 | CC#CC(=O)Nc1ccc(OC)c(Nc2ncc(Cl)c(Nc3ccccc3P(C)(C)=O)n2)c1 [Example 6b, N-(3-((5-chloro-4-((2-(dimethylphosphoryl)phenyl)amino)pyrimidin-2-yl)amino)-4-methoxyphenyl)but-2-ynamide] | ≥ 250
